From patent US8618080B2, “Immunomodulatory compounds and treatment of diseases related to an overproduction of inflammatory cytokines” (OM Pharma, priority 2006, dated 2013)

Assays:
human CD4+ T cells = test: Cytokine production and proliferation of naïve CD4+ T cells stimulated with anti-CD3 and anti-CD28; format: cell-based; settings: 0.02-20 μg/ml
Experimental: A series of four compounds of the present invention (OM-197-MP-AC, OM-197-MC-HD, OM-294-BA-MP, OM-197-MP-HD) were tested directly as summarized below:
Naïve CD4^+ T cells were magnetically sorted from healthy blood donor (buffy coat). The cells were stimulated in the presence or not of graded doses of triacyl derivatives (0.02; 0.2; 2 and 20 μg/ml) using plate-bound anti-CD3 (5 μg/ml) and soluble anti-CD28 (1 μg/ml). After 6 days, cytokine levels (IFN-γ and IL-13) were tested in the culture supernatants using ELISA.
FIGS. 3A-3D: Effect of increasing doses of the four compounds tested (OM-197-MP-AC, n=5; OM-197-MC-HD, n=5; OM-294-BA-MP, n=7; OM-197-MP-HD, n=3) on IFN-γ and IL-13 production of human CD4^+ T cells following a polyclonal activation. Results are expressed as the median (±p25/p75) of n independent experiments and show the percentage (%) proliferation or cytokine production of treated cells versus untreated cells (considered as 100%, see dotted line). The statistical analysis was performed using a nonparametric unpaired Mann-Whitney t test (2-tailed).

[1] = test system: LACK-sensitized and challenged Balb/c ByJ mice; test: LACK-induced allergic asthma model, prophylactic i.p. treatment; format: in vivo; settings: 1 mg/Kg i.p. prophylactic
Experimental: Females Balb/c ByJ mice of 6-week old were purchased from the Centre d'Elevage Janvier (CERJ, Le Genest-St-lsle, France). All the mice were sensitised by 2 i.p. injections of 10 μg LACK protein precipitated in 2 mg of Alum (PerBio Science France SAS, Brebières, France) at days 0 and 7.
Animals were divided in groups, as follow: • LACK-sensitized and saline-challenged mice (4 mice) • LACK-sensitized and challenged mice (8 mice) • OM-197-MP-AC-treated, LACK-sensitized and challenged mice (8 mice)
Mice of the third group were treated intraperitoneally with 1 mg/Kg (20 μg per mouse) of OM-197-MP-AC. Mice were treated on days: −1, 1, 2, 3, 6, 8, 9, 10 and 11. From day 16 to day 21, mice of groups B and C were exposed to a daily 20-min aerosol challenge of a LACK solution (0.15%) whereas mice of the saline group received a saline solution as control.
AHR was measured for all the mice one day after the last antigen challenge by whole-body plethysmography (Emka) in response to increasing concentrations (6-25 mg/ml) of inhaled methacholine (acetyl methyl choline, Sigma). AHR is expressed as enhanced pause (Penh, see FIG. 4), a dimensionless parameter perfectly correlated to airway compliance and resistance calculated value, which correlates with measurement of airway resistance, impedance, and intrapleural pressure.
All the mice were bled by heart puncture one day after the last aerosol. Total IgE were quantified by ELISA using rat EM-95 anti-IgE mAbs as coating antibody and rat anti-IgE mAbs coupled to biotin as second antibody as described (Julia et al., 2002).
Individual mice were bled and a canula was inserted into their trachea. Lungs were washed 3 times with 1 ml of warmed PBS. Cells were washed with PBS, resuspended in 300 μl, and counted using a Burker-Türk chamber. For differential BAL cell counts, cytospin preparations were made and stained with Wright/Giemsa coloration. The respective numbers of neutrophils, eosinophils, and other mononuclear cells were determined by microscopic examination. Only the percentage of eosinophils (FIG. 5) is reported here.
To investigate lung cytokine contents of treated and untreated animals, protein extracts were prepared from lungs of LACK-sensitized and PBS-challenged wt mice (group “Control”), LACK-sensitized and challenged wt mice (group Asthma”), OM-197-MP-AC-treated wt mice (group “OM-197”). IL-4, IL-5, IL-13 contents were analyzed by multiplex analysis using FACSArray.
Treated or untreated LACK-sensitized mice (see above) were next challenged with daily aerosol of LACK for five consecutive days. One day after the last aerosol, AHR was measured by whole-body plethysmography in response to increasing concentrations of aerosolized methacholine.
To further investigate the effects of prophylactic OM-197-MP-AC on allergic airway inflammation, proteins were extracted from lungs of both treated and untreated WT mice, and cytokines known to play a important role in asthma (IL-4, IL-5 and IL-13) were quantified by multiplex analysis using CBA array beads and FACSarray. Data were normalized to the total quantity of proteins and given as pg of cytokine per mg of lung proteins.

[2] = lung protein extracts, CBA/FACSArray

CCCCCCCCCCCC(=O)O[C@H](CCCCCCCCCCC)CC(=O)N[C@@H](CCOP(=O)(O)O)C(=O)NCCC[C@H](COC(=O)CCCCCN)NC(=O)C[C@H](O)CCCCCCCCCCC [OM-197-MP-AC, (3S, 9R)-3-[(R)-3-dodecanoyloxytetradecanoylamino]-4-oxo-5-aza-9-[(R)-3-hydroxytetradecanoylamino]-decan-1, 10-diol 1-dihydrogenophosphate 10-(6-aminohexanoate)]
T cell proliferation (human CD4+ T cells): unaffected | IFN-γ production by CD4+ T cells (human CD4+ T cells; 6 days, ELISA): unaffected | IL-13 production by CD4+ T cells (human CD4+ T cells; 6 days, ELISA): reduced | Eosinophils in BAL, less than untreated control mice [1]: 3 times less | Total IgE in sera, less than untreated sensitized, challenged mice ([1]; ELISA): 2 fold less | Amount of KC produced in lungs ([1]; lung protein extracts): reduced by half | Lung IFN-γ, less than untreated mice ([1]; lung protein extracts): 2 times less | Lung IL-6, less than untreated mice ([1]; lung protein extracts): 1.5 times less | Lung MCP-1, less than untreated animals ([1]; lung protein extracts): 1.8 times less | Lung IL-4, less than untreated mice [1, 2]: 5 times less | Lung IL-5, less than untreated mice [1, 2]: 5 times less | Lung IL-13, less than untreated mice [1, 2]: 3.5 times less | Airway hyperresponsiveness (AHR, Penh) to methacholine ([1]; whole-body plethysmography one day after last challenge): did not exhibit AHR
